The source of these data is ChEMBL document CHEMBL6127040, “Discovery and optimization of isoliquiritigenin as a death-associated protein kinase 1 inhibitor” (Eur J Med Chem, 2024).

This assay concerns the target Death-associated protein kinase 1 (Homo sapiens, UniProt P53355). The assay is described as follows: Binding affinity to DAPK1 (unknown origin) assessed as dissociation constant by ITC analysis.

Sequence of Death-associated protein kinase 1 (P53355 whole entry): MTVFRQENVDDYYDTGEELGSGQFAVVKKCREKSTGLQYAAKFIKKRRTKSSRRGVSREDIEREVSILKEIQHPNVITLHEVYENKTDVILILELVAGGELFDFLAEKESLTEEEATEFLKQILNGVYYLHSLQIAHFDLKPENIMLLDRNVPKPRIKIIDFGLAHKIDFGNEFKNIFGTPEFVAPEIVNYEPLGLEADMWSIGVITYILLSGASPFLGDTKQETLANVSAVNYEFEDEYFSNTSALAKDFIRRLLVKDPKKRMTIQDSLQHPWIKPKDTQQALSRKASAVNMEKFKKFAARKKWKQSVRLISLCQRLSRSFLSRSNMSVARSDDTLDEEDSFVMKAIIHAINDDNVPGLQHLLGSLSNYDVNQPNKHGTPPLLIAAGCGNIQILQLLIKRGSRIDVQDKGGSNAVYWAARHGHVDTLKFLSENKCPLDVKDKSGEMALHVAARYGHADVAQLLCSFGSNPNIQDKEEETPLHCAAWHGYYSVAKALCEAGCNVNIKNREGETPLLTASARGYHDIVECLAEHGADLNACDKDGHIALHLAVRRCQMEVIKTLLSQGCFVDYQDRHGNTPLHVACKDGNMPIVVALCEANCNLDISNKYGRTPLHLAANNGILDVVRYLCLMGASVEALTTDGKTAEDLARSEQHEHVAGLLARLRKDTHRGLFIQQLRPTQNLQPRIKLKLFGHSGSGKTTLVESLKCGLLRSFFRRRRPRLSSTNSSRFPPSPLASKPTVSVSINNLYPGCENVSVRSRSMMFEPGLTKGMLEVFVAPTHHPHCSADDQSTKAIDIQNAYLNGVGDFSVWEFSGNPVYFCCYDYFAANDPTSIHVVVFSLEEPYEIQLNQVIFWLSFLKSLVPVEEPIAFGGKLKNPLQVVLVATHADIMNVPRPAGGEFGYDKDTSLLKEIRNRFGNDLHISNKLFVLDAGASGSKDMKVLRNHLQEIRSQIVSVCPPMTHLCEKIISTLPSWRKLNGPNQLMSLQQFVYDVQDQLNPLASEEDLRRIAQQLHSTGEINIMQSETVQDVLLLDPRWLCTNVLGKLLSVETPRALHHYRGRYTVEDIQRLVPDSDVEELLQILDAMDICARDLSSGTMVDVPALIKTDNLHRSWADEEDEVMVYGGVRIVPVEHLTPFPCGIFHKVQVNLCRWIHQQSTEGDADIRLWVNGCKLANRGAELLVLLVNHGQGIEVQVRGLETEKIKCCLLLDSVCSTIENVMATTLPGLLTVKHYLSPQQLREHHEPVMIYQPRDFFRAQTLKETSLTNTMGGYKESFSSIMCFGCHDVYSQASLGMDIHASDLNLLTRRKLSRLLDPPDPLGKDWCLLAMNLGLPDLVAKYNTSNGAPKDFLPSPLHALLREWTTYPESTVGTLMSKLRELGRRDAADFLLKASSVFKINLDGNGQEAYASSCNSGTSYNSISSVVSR

As to `O=C(/C=C/c1ccc(O)cc1)c1ccc(O)cc1O` [ISOLIQUIRITIGENIN], the Kd turned out to be 2480 nM.
